Measured values: patent publication US4446047A, “Pleochroic anthraquinone dyes” (Imperial Chemical Industries PLC, priority 1981, dated 1984)

How the values were obtained:
[1] = prior-art symmetrical dyes; cited from earlier work
[2] = prior-art symmetrical dyes; cited from earlier work; remark: listed apart in the source
[3] = prior-art symmetrical dyes; cited from earlier work; remark: listed apart in the source
[4] = Order parameter in other liquid crystal media (hosts) / liquid crystal materials; format: physicochemical; conditions: 20° C.
Experimental: (§1) In order to provide maximum contrast between the two states it is important that the guest molecules adopt as closely as possible the time averaged orientation of the host, however this is achieved only to a limited degree because of random thermal fluctuations. The degree to which the orientation varies from the ideal is measured by a quantity known as the order parameter S which is given by the following equation: […]
where cos^2 θ is a time averaged term and θ is the instantaneous angular orientation of the molecules with respect to the time averaged orientation of the host molecules. The determination of the value of the order parameter S is well understood in the art, see for example the paper, "A new absorptive mode reflective liquid crystal display device", by D. L. White and G. N. Taylor in the Journal of Applied Physics, 1974, 45, pages […] to 4723.
(§2) The properties of some of the dyes described in the Examples were also measured in other liquid crystal media (hosts) at 20° C., unless otherwise stated, and the results are set out in Table 5.
(§3) The liquid crystal materials referred to in Table 5 as Hosts 1 to 12 have the following compositions:
(§4) Host 1 is the liquid crystal material E7, available from BDH Chemicals Ltd, which includes the compounds:
(§5) Host 2 is the liquid crystal material ZLI 1132, available from E Merck & Co, which includes the following compounds:
(§6) Host 3 is the liquid crystal material ZLI 1695, available from E Merck & Co, Darmstadt, West Germany. This has a clearing point (nematic to isotropic transition temperature) of 72° C.
(§7) Host 4 is a mixture of alkyl-cyanophenyl-dioxanes containing n-propyl, n-pentyl and n-heptyl chains.
(§8) Host 5 is the liquid crystal material ZLI 1565, available from E Merck & Co. This has a clearing point of 85° C.
(§9) Host 6 is the liquid crystal material ZLI 1624, available from E Merck & Co. This has a clearing point of 87° C.
(§10) Host 8 is the liquid crystal material RO-TN 430 available from Hoffmann La Roche Co. This has a clearing point of 69° C.
(§11) Host 9 is a mixed bicyclo-octane liquid crystal material containing the following compounds:
(§12) Host 10 is a mixture of liquid crystal materials based mainly on cyanobiphenyls and available from BDH Chemicals Ltd under the name E61.
(§13) Host 11 is a mixture of liquid crystal materials based mainly on cyanobiphenyls and available from BDH Chemicals Ltd under the name E49.
(§14) Host 12 is a mixture of fluorobicyclo(2,2,2)octane esters having negative anisotropy and containing a mixture of two compounds of the following formula: […]

[5] = Absorption maximum in liquid crystal medium E43; format: physicochemical; conditions: E43, 20° C., Table 4
Excerpt: Detection was by means of a u.v. source (254 nm) and samples, corresponding to all the peaks in the chromatogram, were collected.

[6] = Molar extinction coefficient of the dye in liquid crystal material; format: physicochemical
Excerpt: Solubility is, however, only one of the factors affecting the achievement of good contrast in a liquid crystal display, another factor is the extinction coefficient of the dye in the liquid crystal material. One useful indication of the ability of a dye to give good contrast is the product of the molar extinction coefficient and the solubility (in moles/liter).

[7] = Order parameter in liquid crystal medium E43; format: physicochemical; conditions: E43, 20° C., Table 4
Experimental: as §1
where cos^2 θ is a time averaged term and θ is the instantaneous angular orientation of the molecules with respect to the time averaged orientation of the host molecules.

[8] = Solubility in other liquid crystal media (hosts) / liquid crystal materials; format: physicochemical
Experimental: as §2, §3, §4, §5, §6, §7, §8, §9, §10, §11, §12, §13, §14

Row | Compound | solubility in the liquid crystal materials (in words) [1] | stability (in words) [2] | order parameters (in words) [3] | Order Parameter ([4]; Host 1 (E7)) | Order Parameter ([4]; Host 2 (ZLI 1132)) | Order Parameter ([4]; Host 3 (ZLI 1695)) | Order Parameter ([4]; Host 4 (alkyl-cyanophenyl-dioxanes mixture)) | Order Parameter ([4]; Host 9 (mixed bicyclo-octane)) | Order Parameter ([4]; Host 10 (E61)) | Order Parameter ([4]; Host 11 (E49)) | Order Parameter ([4]; Host 12 (fluorobicyclo(2,2,2)octane esters)) | λmax [5] | molar extinction coefficient [6] | Order Parameter [7] | Solubility ([8]; Host 2 (ZLI 1132), 20° C.) | Solubility ([8]; Host 3 (ZLI 1695), 20° C.) | Solubility ([8]; Host 10 (E61), -2° C.) | Solubility ([8]; Host 11 (E49), 20° C.) | Solubility ([8]; Host 11 (E49), -2° C.) | Solubility ([8]; Host 12 (fluorobicyclo(2,2,2)octane esters), 20° C.)
1 | O=C1c2cccc(Sc3ccccc3)c2C(=O)c2cccc(Sc3ccccc3)c21 [1,5-bis(phenylthio)anthraquinone] | insufficient for practical purposes | adequate | high | – | – | – | – | – | – | – | – | – | – | – | – | – | – | – | – | –
2 | CC(C)(C)c1ccc(Sc2cccc3c2C(=O)c2cccc(Sc4ccccc4)c2C3=O)cc1 [Example 11, 1-phenylthio-5-(4-t-butylphenylthio)anthraquinone] | – | – | – | 0.73 | 0.79 | 0.81 | 0.74 | 0.81 | 0.78 | 0.78 | 0.77 | 464 nm | 11,000 cm^2.moles^-1 | 0.79 | 4.0% | 2.5% | 4.0% | > 5.0% | 4.4% | 2.0%
